Measured values from ChEMBL document CHEMBL1201862, “PubChem BioAssay data set” (2004).
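The compound was tested at five concentrations on cells cultured in 96-well plates, with a 48-hour exposure period. Abbreviation: GI50, concentration required for 50% inhibition of growth.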 Active and inactive are the calls of the source. Cut-off read from the data, not from the text of the source: active = GI50 up to about 1.1 µM and inactive = higher.

How the values were obtained:
Test in all cases: NCI anticancer screen, dose series, 48 h
[1] = test system: HL-60
[2] = test system: CAKI-1
[3] = test system: SF-539
[4] = test system: RXF 393
[5] = test system: SK-MEL-2
[6] = test system: DU-145
[7] = test system: UACC-257
[8] = test system: MOLT-4
[9] = test system: OVCAR-3
[10] = test system: UACC-62
[11] = test system: PC-3
[12] = test system: NCI-H460
[13] = test system: RPMI-8226
[14] = test system: OVCAR-4
[15] = test system: HCT-116
[16] = test system: TK-10
[17] = test system: K562
[18] = test system: EKVX
[19] = test system: MCF7

| Compound | GI50 [1] | GI50 [2] | GI50 [3] | GI50 [4] | GI50 [5] | GI50 [6] | GI50 [7] | GI50 [8] | GI50 [9] | GI50 [10] | GI50 [11] | GI50 [12] | GI50 [13] | GI50 [14] | GI50 [15] | GI50 [16] | GI50 [17] | GI50 [18] | GI50 [19] |
| --- | --- | --- | --- | --- | --- | --- | --- | --- | --- | --- | --- | --- | --- | --- | --- | --- | --- | --- | --- |
| C=C1C(=O)OC2C1C(=O)C/C(C)=C/CCC1(C)OC21 (stereo not given) | 1.33 µM (inactive) | 14.7 µM (inactive) | 15 µM (inactive) | 15.4 µM (inactive) | 18.5 µM (inactive) | 17.4 µM (inactive) | 20.1 µM (inactive) | 17.3 µM (inactive) | 15.1 µM (inactive) | 25.5 µM (inactive) | 18.1 µM (inactive) | 21.2 µM (inactive) | 12.3 µM (inactive) | 18.7 µM (inactive) | 14.8 µM (inactive) | 16.1 µM (inactive) | 5.6 µM (inactive) | 25.2 µM (inactive) | 8.63 µM (inactive) |
| CC(C)(C)SC1=CCC[C@@H](P(=O)(c2ccccc2)c2ccccc2)[C@@H]2CCC[C@@H]12 | 20 µM (inactive) | 13.8 µM (inactive) | 18.8 µM (inactive) | 13.8 µM (inactive) | 16.5 µM (inactive) | 17.2 µM (inactive) | 17 µM (inactive) | 16 µM (inactive) | 17 µM (inactive) | 12.4 µM (inactive) | 14 µM (inactive) | 15.7 µM (inactive) | 19.1 µM (inactive) | 14.3 µM (inactive) | 14.3 µM (inactive) | 17.5 µM (inactive) | 19.3 µM (inactive) | 18.6 µM (inactive) | 16.2 µM (inactive) |
| CC(C)/C(Cl)=N\OC(=O)Nc1cccc(F)c1 | 1.96 µM (inactive) | 16 µM (inactive) | 18.6 µM (inactive) | 17.1 µM (inactive) | 7.76 µM (inactive) | 18.4 µM (inactive) | 15.8 µM (inactive) | 2.28 µM (inactive) | 17 µM (inactive) | 20.4 µM (inactive) | 16.4 µM (inactive) | 27.4 µM (inactive) | 4.34 µM (inactive) | 11.7 µM (inactive) | 16.1 µM (inactive) | 14.8 µM (inactive) | 2.19 µM (inactive) | 16.7 µM (inactive) | 11 µM (inactive) |
| O=C1N=C(c2ccccc2)O/C1=C\c1ccccc1 | > 100 µM (inactive) | > 100 µM (inactive) | > 100 µM (inactive) | > 100 µM (inactive) | > 100 µM (inactive) | > 100 µM (inactive) | > 100 µM (inactive) | > 100 µM (inactive) | > 100 µM (inactive) | > 100 µM (inactive) | > 100 µM (inactive) | > 100 µM (inactive) | > 100 µM (inactive) | > 100 µM (inactive) | > 100 µM (inactive) | > 100 µM (inactive) |  |  | > 100 µM (inactive) |
| C#CC1(O)C(COP(=O)(O)OCC2OC(n3ccc(NCCCCCCCCCCCCCCCCCC)nc3=O)C(O)C2O)OC(n2ccc(N)nc2=O)C1O (stereo not given) | 0.298 µM (active) | 0.161 µM (active) | 1.16 µM (inactive) | 4.15 µM (inactive) | 0.67 µM (active) | 0.279 µM (active) | 4.05 µM (inactive) | 0.418 µM (active) | 2.59 µM (inactive) | 0.614 µM (active) | 1.8 µM (inactive) | 0.0519 µM (active) | 0.142 µM (active) | 1.82 µM (inactive) | 0.245 µM (active) | 0.401 µM (active) | 0.278 µM (active) | 8.24 µM (inactive) | 0.059 µM (active) |
| O=c1[nH]nc(Cc2ccc(Cl)cc2)n1/N=C/c1ccco1 | > 100 µM (inactive) | > 100 µM (inactive) | 27.4 µM (inactive) | 26.5 µM (inactive) | 40.1 µM (inactive) | > 100 µM (inactive) | > 100 µM (inactive) | > 100 µM (inactive) | > 100 µM (inactive) | 74 µM (inactive) | > 100 µM (inactive) | > 100 µM (inactive) | > 100 µM (inactive) | > 100 µM (inactive) | 93.1 µM (inactive) |  | > 100 µM (inactive) | > 100 µM (inactive) | 3.15 µM (inactive) |
| O=C1O/C(=C\c2ccc(O)cc2)C(c2ccc(O)c(Cl)c2)=C1Cl | 33 µM (inactive) | 37.2 µM (inactive) | 91.8 µM (inactive) | 30.9 µM (inactive) | 31.2 µM (inactive) | > 100 µM (inactive) | 49.5 µM (inactive) | 49.7 µM (inactive) | 38.1 µM (inactive) | 32.1 µM (inactive) | > 100 µM (inactive) | 30.3 µM (inactive) | > 100 µM (inactive) | 69 µM (inactive) |  | 54.8 µM (inactive) | 57.1 µM (inactive) | 88.5 µM (inactive) | 16.6 µM (inactive) |
| NC(Cc1n[nH]c2ccccc12)C(=O)O (stereo not given) | > 100 µM (inactive) | > 100 µM (inactive) | > 100 µM (inactive) | > 100 µM (inactive) | 0.104 µM (active) | > 100 µM (inactive) | > 100 µM (inactive) | > 100 µM (inactive) | > 100 µM (inactive) | > 100 µM (inactive) | > 100 µM (inactive) | > 100 µM (inactive) | > 100 µM (inactive) | > 100 µM (inactive) | > 100 µM (inactive) | > 100 µM (inactive) | > 100 µM (inactive) | > 100 µM (inactive) | > 100 µM (inactive) |
| COC(=O)C1(Cc2cccc(C)c2)Cc2c(C)cccc2C1=O (stereo not given) | > 100 µM (inactive) | 64.9 µM (inactive) | 38.4 µM (inactive) | 29.4 µM (inactive) | 32.7 µM (inactive) | > 100 µM (inactive) | 82.8 µM (inactive) | 36.8 µM (inactive) | 24.5 µM (inactive) | 46.8 µM (inactive) | 27.2 µM (inactive) | 45.4 µM (inactive) | > 100 µM (inactive) | 41.7 µM (inactive) | 36.4 µM (inactive) | 89.3 µM (inactive) | 35.9 µM (inactive) | 29.1 µM (inactive) | 33.7 µM (inactive) |
| O=c1cc(CN2CCCCC2)nc2ccc3c(O)cc(CN4CCCCC4)nc3n12 | > 100 µM (inactive) | > 100 µM (inactive) | > 100 µM (inactive) | > 100 µM (inactive) | > 100 µM (inactive) | > 100 µM (inactive) | 88.9 µM (inactive) | 89.7 µM (inactive) | > 100 µM (inactive) | > 100 µM (inactive) | > 100 µM (inactive) | > 100 µM (inactive) | > 100 µM (inactive) | > 100 µM (inactive) | > 100 µM (inactive) | > 100 µM (inactive) | > 100 µM (inactive) | > 100 µM (inactive) | > 100 µM (inactive) |
| O=C(N/N=C/c1ccccc1)c1c(-c2cccnc2)cnc2ccccc12 | 42.9 µM (inactive) | > 100 µM (inactive) | 70.3 µM (inactive) | > 100 µM (inactive) | > 100 µM (inactive) | > 100 µM (inactive) | 88.9 µM (inactive) | > 100 µM (inactive) | > 100 µM (inactive) | 79.8 µM (inactive) | > 100 µM (inactive) | 61.1 µM (inactive) | > 100 µM (inactive) | > 100 µM (inactive) | 52.5 µM (inactive) | > 100 µM (inactive) | 44.9 µM (inactive) | > 100 µM (inactive) | 48.2 µM (inactive) |
| N#Cc1c(-c2ccc([N+](=O)[O-])cc2)cc(-c2ccc(Nc3ccnc4cc(Cl)ccc34)cc2)[nH]c1=O | > 100 µM (inactive) | > 100 µM (inactive) | > 100 µM (inactive) | > 100 µM (inactive) | > 100 µM (inactive) | > 100 µM (inactive) |  | > 100 µM (inactive) | > 100 µM (inactive) | > 100 µM (inactive) | > 100 µM (inactive) | > 100 µM (inactive) | > 100 µM (inactive) | > 100 µM (inactive) | > 100 µM (inactive) | 98.9 µM (inactive) | > 100 µM (inactive) | > 100 µM (inactive) | > 100 µM (inactive) |
| CC(=O)O[C@H]1CCc2c(cc(N)c3c2C(=O)C[C@]2(C)C([C@H](C)CCCC(C)C)CCC32C)C1(C)C (stereo not given in full) | 66.5 µM (inactive) | > 100 µM (inactive) | 71.9 µM (inactive) | > 100 µM (inactive) | > 100 µM (inactive) | > 100 µM (inactive) | 85.7 µM (inactive) | > 100 µM (inactive) | > 100 µM (inactive) | > 100 µM (inactive) | 72.8 µM (inactive) | > 100 µM (inactive) | > 100 µM (inactive) | 92.7 µM (inactive) | 89.7 µM (inactive) | > 100 µM (inactive) | 33.7 µM (inactive) | > 100 µM (inactive) | 57.9 µM (inactive) |
| CC1CC[C@]2(C(=O)O)CCC3(C)C(=C2[C@H]1C)C=CC1[C@@]2(C)CC[C@H](O)C(C)(C)C2CC[C@]13C (stereo not given in full) | 18.6 µM (inactive) | 22.8 µM (inactive) | 17.3 µM (inactive) | 3.8 µM (inactive) | 64.9 µM (inactive) | 16.6 µM (inactive) | 45 µM (inactive) | 23.7 µM (inactive) | 17.5 µM (inactive) | 42.2 µM (inactive) | 21.1 µM (inactive) | 21.6 µM (inactive) | 12.2 µM (inactive) | 30.1 µM (inactive) | 17.6 µM (inactive) | 33.5 µM (inactive) | 14.7 µM (inactive) | 32.8 µM (inactive) | 30 µM (inactive) |
| c1ccc2c(c1)CCN2CCN1CCc2ccccc21 | > 10 µM (inactive) | > 10 µM (inactive) | > 10 µM (inactive) | > 10 µM (inactive) | > 10 µM (inactive) | > 10 µM (inactive) | > 10 µM (inactive) | > 10 µM (inactive) | > 10 µM (inactive) | > 10 µM (inactive) | > 10 µM (inactive) | > 10 µM (inactive) | > 10 µM (inactive) | > 10 µM (inactive) | > 10 µM (inactive) | > 10 µM (inactive) | > 10 µM (inactive) | > 10 µM (inactive) | > 10 µM (inactive) |
